Laboratory results as given in patent US20250136596A1, “MEMBRANE-ASSOCIATED TYROSINE- AND THREONINE-SPECIFIC CDC2-INHIBITORY KINASE (PKMYT1) INHIBITORS AND USES THEREOF” (Insilico Medicine IP Limited, priority 2022, published 2025).

Biological target: PKMYT1 (Homo sapiens (Human), UniProt Q99640)
Experiment: PKMYT1 HTRF Assay
Assay type: binding
Conditions: Tracer 178, GST-Tb; compound 10 μM to 0.5 nM; read-out: MYT1 HTRF IC50
Protocol: Example A: PKMYT1 HTRF Assay
Compound serial dilution is performed by Echo, and the final concentrations vary from 10 μM to 0.5 nM. This was filled by the addition of 5 μL/well of Enzyme solution to the assay plate containing the compound. The plate was centrifuged at 1000 rpm for 1 minute, and incubate 15 minutes at 25 ? . Then 5 μL/well of tracer solution (Tracer 178) was added to initiate the reaction, and incubate for 60 minutes at 25° C. Next 5 μL GST-Tb was added into the assay plate, the plate was centrifuged at 1000 rpm for 1 minute, and incubate for 15 minutes at 25 ? . The assay plate was read on Envision.

PKMYT1, sequence (Q99640 whole entry): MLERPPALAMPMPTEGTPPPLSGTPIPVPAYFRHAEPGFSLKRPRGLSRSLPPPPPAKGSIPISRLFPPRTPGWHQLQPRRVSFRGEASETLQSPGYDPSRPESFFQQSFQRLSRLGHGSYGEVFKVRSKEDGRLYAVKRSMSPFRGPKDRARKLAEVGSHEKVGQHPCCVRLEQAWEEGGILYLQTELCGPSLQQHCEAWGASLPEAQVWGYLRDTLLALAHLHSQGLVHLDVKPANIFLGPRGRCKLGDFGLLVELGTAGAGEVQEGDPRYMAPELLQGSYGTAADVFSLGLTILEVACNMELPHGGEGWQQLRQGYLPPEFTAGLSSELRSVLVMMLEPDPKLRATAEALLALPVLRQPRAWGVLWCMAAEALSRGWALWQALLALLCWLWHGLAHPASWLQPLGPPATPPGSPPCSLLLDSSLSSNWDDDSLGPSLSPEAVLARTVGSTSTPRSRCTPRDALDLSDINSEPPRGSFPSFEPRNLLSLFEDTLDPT

Structure (SMILES): Cc1ccc(O)c(C)c1-c1cnc2[nH]c(-c3cnc(C(F)F)nc3)c(Cl)c2c1C#N [Example 54, (S)-3-chloro-2-(2-(difluoromethyl)pyrimidin-5-yl)-5-(3-hydroxy-2,6-dimethylphenyl)-1H-pyrrolo[2,3-b]pyridine-4-carbonitrile]
- IC50: < 10 nM

Structure (SMILES): Cc1ccc(O)c(C)c1-c1cnc2[nH]c(-c3cnc(C(F)(F)F)nc3)cc2c1C#N [Example 55, 5-(3-hydroxy-2,6-dimethylphenyl)-2-(2-(trifluoromethyl)pyrimidin-5-yl)-1H-pyrrolo[2,3-b]pyridine-4-carbonitrile]
- IC50: < 10 nM

Structure (SMILES): Cc1ccc(O)c(C)c1-c1cnc2[nH]c(-c3cnc(C4CC4)nc3)cc2c1C#N [Example 56, (S)-2-(2-cyclopropylpyrimidin-5-yl)-5-(3-hydroxy-2,6-dimethylphenyl)-1H-pyrrolo[2,3-b]pyridine-4-carbonitrile]
- IC50: < 10 nM

Structure (SMILES): Cc1ccc(O)c(C)c1-c1cnc2[nH]c(-c3cnc(C4CC4)nc3)c(Cl)c2c1C#N [Example 57, (S)-3-chloro-2-(2-cyclopropylpyrimidin-5-yl)-5-(3-hydroxy-2,6-dimethylphenyl)-1H-pyrrolo[2,3-b]pyridine-4-carbonitrile]
- IC50: < 10 nM

Structure (SMILES): Cc1ccc(O)c(C)c1-c1cnc2[nH]c(-c3cnc(CO)nc3)cc2c1C#N [Example 58, (S)-5-(3-hydroxy-2,6-dimethylphenyl)-2-(2-(hydroxymethyl)pyrimidin-5-yl)-1H-pyrrolo[2,3-b]pyridine-4-carbonitrile]
- IC50: < 10 nM

Structure (SMILES): Cc1ncc(-c2cc3c(C#N)c(-c4c(C)ccc(O)c4C)cnc3[nH]2)s1 [Example 59, (R)-5-(3-hydroxy-2,6-dimethylphenyl)-2-(2-methylthiazol-5-yl)-1H-pyrrolo[2,3-b]pyridine-4-carbonitrile]
- IC50: < 10 nM

Structure (SMILES): Cc1ncc(-c2[nH]c3ncc(-c4c(C)ccc(O)c4C)c(C#N)c3c2Cl)s1 [Example 60, (R)-3-chloro-5-(3-hydroxy-2,6-dimethylphenyl)-2-(2-methylthiazol-5-yl)-1H-pyrrolo[2,3-b]pyridine-4-carbonitrile]
- IC50: < 10 nM

Structure (SMILES): Cc1ccc(O)c(C)c1-c1cnc2[nH]c(-c3cnc4[nH]cnc4c3)cc2c1C#N [Example 63, (R)-5-(3-hydroxy-2,6-dimethylphenyl)-2-(3H-imidazo[4,5-b]pyridin-6-y1)-1H-pyrrolo[2,3-b]pyridine-4-carbonitrile]
- IC50: < 10 nM

Structure (SMILES): Cc1ccc(O)c(C)c1-c1cnc2[nH]c(-c3cnc(C)c(=O)[nH]3)c(Cl)c2c1C#N [Example 64, 3-chloro-5-(3-hydroxy-2,6-dimethylphenyl)-2-(5-methyl-6-oxo-1,6-dihydropyrazin-2-yl)-1H-pyrrolo[2,3-b]pyridine-4-carbonitrile]
- IC50: 10 to 50 nM

Structure (SMILES): Cc1ccc(O)c(C)c1-c1cnc2[nH]c(-c3cnn(C)c(=O)c3)cc2c1C#N [Example 65, 5-(3-hydroxy-2,6-dimethylphenyl)-2-(1-methyl-6-oxo-1,6-dihydropyridazin-4-yl)-1H-pyrrolo[2,3-b]pyridine-4-carbonitrile]
- IC50: < 10 nM

Structure (SMILES): Cc1ccc(O)c(C)c1-c1cnc2[nH]c(-c3cnn(C)c(=O)c3)c(Cl)c2c1C#N [Example 66, (R)-3-chloro-5-(3-hydroxy-2,6-dimethylphenyl)-2-(1-methyl-6-oxo-1,6-dihydropyridazin-4-yl)-1H-pyrrolo[2,3-b]pyridine-4-carbonitrile]
- IC50: < 10 nM

Structure (SMILES): COCCn1ncc(-c2[nH]c3ncc(-c4c(C)ccc(O)c4C)c(C#N)c3c2Cl)cc1=O [Example 67, (R)-3-chloro-5-(3-hydroxy-2,6-dimethylphenyl)-2-(1-(2-methoxyethyl)-6-oxo-1,6-dihydropyridazin-4-yl)-1H-pyrrolo[2,3-b]pyridine-4-carbonitrile]
- IC50: < 10 nM

Structure (SMILES): Cc1ccc(O)c(C)c1-c1cnc2[nH]c(-c3cnn(C4CCOCC4)c(=O)c3)c(Cl)c2c1C#N [Example 68, (R)-3-chloro-5-(3-hydroxy-2,6-dimethylphenyl)-2-(6-oxo-1-(tetrahydro-2H-pyran-4-yl)-1,6-dihydropyridazin-4-yl)-1H-pyrrolo[2,3-b]pyridine-4-carbonitrile]
- IC50: < 10 nM

Structure (SMILES): Cc1ccc(O)c(C)c1-c1cnc2[nH]c(-c3cnc(N4CC(C(=O)O)C4)nc3)cc2c1C#N [Example 69, (R)-1-(5-(4-cyano-5-(3-hydroxy-2,6-dimethylphenyl)-1H-pyrrolo[2,3-b]pyridin-2-yl)pyrimidin-2-yl)azetidine-3-carboxylic acid]
- IC50: < 10 nM

Structure (SMILES): Cc1ccc(O)c(C)c1-c1cnc2[nH]c(-c3cnc(N4CC(C(=O)O)C4)nc3)c(Cl)c2c1C#N [Example 70, (R)-1-(5-(3-chloro-4-cyano-5-(3-hydroxy-2,6-dimethylphenyl)-1H-pyrrolo[2,3-b]pyridin-2-yl)pyrimidin-2-yl)azetidine-3-carboxylic acid]
- IC50: < 10 nM

Structure (SMILES): Cc1ccc(O)c(C)c1-c1cnc2[nH]c(-c3cnc(N4CC(C(N)=O)C4)nc3)cc2c1C#N [Example 71, (R)-1-(5-(4-cyano-5-(3-hydroxy-2,6-dimethylphenyl)-1H-pyrrolo[2,3-b]pyridin-2-yl)pyrimidin-2-yl)azetidine-3-carboxamide]
- IC50: < 10 nM

Structure (SMILES): Cc1ccc(O)c(C)c1-c1cnc2[nH]c(-c3cnc(N4CCC(C(=O)O)C4)nc3)c(Cl)c2c1C#N [Example 72, (R)-1-(5-((R)-3-chloro-4-cyano-5-(3-hydroxy-2,6-dimethylphenyl)-1H-pyrrolo[2,3-b]pyridin-2-yl)pyrimidin-2-yl)pyrrolidine-3-carboxylic acid]
- IC50: < 10 nM

Structure (SMILES): Cc1ccc(O)c(C)c1-c1cnc2[nH]c(-c3cnc(N4CCC(C(N)=O)C4)nc3)c(Cl)c2c1C#N [Example 73, (S)-1-(5-((R)-3-chloro-4-cyano-5-(3-hydroxy-2,6-dimethylphenyl)-1H-pyrrolo[2,3-b]pyridin-2-yl)pyrimidin-2-yl)pyrrolidine-3-carboxamide]
- IC50: < 10 nM

Structure (SMILES): Cc1ccc(O)c(C)c1-c1cnc2[nH]c(-c3cnc(N4CCCC4CO)nc3)c(Cl)c2c1C#N (stereo not shown) [Example 74, 3-chloro-5-(3-hydroxy-2,6-dimethylphenyl)-2-(2-(2-(hydroxymethyl)pyrrolidin-1-yl)pyrimidin-5-yl)-1H-pyrrolo[2,3-b]pyridine-4-carbonitrile]
- IC50: < 10 nM

Structure (SMILES): COCCOc1ncc(-c2cc3c(C#N)c(-c4c(C)ccc(O)c4C)cnc3[nH]2)cn1 [Example 75, (R)-5-(3-hydroxy-2,6-dimethylphenyl)-2-(2-(2-methoxyethoxy)pyrimidin-5-yl)-1H-pyrrolo[2,3-b]pyridine-4-carbonitrile]
- IC50: < 10 nM

Structure (SMILES): COCCOc1ncc(-c2[nH]c3ncc(-c4c(C)ccc(O)c4C)c(C#N)c3c2Cl)cn1 [Example 76, (R)-3-chloro-5-(3-hydroxy-2,6-dimethylphenyl)-2-(2-(2-methoxyethoxy)pyrimidin-5-yl)-1H-pyrrolo[2,3-b]pyridine-4-carbonitrile]
- IC50: < 10 nM

Structure (SMILES): Cc1ncc(-c2[nH]c3ncc(-c4c(C)ccc(O)c4C)c(C#N)c3c2Cl)c(C)n1 [Example 78, (R)-3-chloro-2-(2,4-dimethylpyrimidin-5-yl)-5-(3-hydroxy-2,6-dimethylphenyl)-1H-pyrrolo[2,3-b]pyridine-4-carbonitrile]
- IC50: 50 to 500 nM

Structure (SMILES): Cc1ncc(-c2[nH]c3ncc(-c4c(C)ccc(O)c4C)cc3c2Cl)cn1 [Example 79, 3-(3-chloro-2-(2-methylpyrimidin-5-yl)-1H-pyrrolo[2,3-b]pyridin-5-yl)-2,4-dimethylphenol]
- IC50: 10 to 50 nM

Structure (SMILES): Cc1ccc(O)c(C)c1-c1cnc2[nH]c(-c3cncnc3)cc2c1C#N [Example 80, (R)-5-(3-hydroxy-2,6-dimethylphenyl)-2-(pyrimidin-5-yl)-1H-pyrrolo[2,3-b]pyridine-4-carbonitrile]
- IC50: < 10 nM

Structure (SMILES): Cc1ccc(O)c(C)c1-c1cnc2[nH]c(-c3cnn(CCO)c3)cc2c1 [Example 81, 3-(2-(1-(2-hydroxyethyl)-1H-pyrazol-4-yl)-1H-pyrrolo[2,3-b]pyridin-5-yl)-2,4-dimethylphenol]
- IC50: 50 to 500 nM

Structure (SMILES): Cc1ccc(O)c(C)c1-c1cnc2[nH]c(-c3cnc(N4CCOC4=O)nc3)c(Cl)c2c1C#N [Example 82, (R)-3-chloro-5-(3-hydroxy-2,6-dimethylphenyl)-2-(2-(2-oxooxazolidin-3-yl)pyrimidin-5-yl)-1H-pyrrolo[2,3-b]pyridine-4-carbonitrile]
- IC50: < 10 nM

Structure (SMILES): Cc1ccc(O)c(C)c1-c1cnc2[nH]c(-c3cnc(OCC(O)CO)nc3)cc2c1C#N [Example 83, (5R)-2-(2-(2,3-dihydroxypropoxy)pyrimidin-5-yl)-5-(3-hydroxy-2,6-dimethylphenyl)-1H-pyrrolo[2,3-b]pyridine-4-carbonitrile]
- IC50: < 10 nM

Structure (SMILES): Cc1ccc(O)c(C)c1-c1cnc2[nH]c(-c3cnc(N4CC[S@SP1](=O)(=O)CC4)nc3)c(Cl)c2c1C#N [Example 84, (R)-3-chloro-2-(2-(1,1-dioxidothiomorpholino)pyrimidin-5-yl)-5-(3-hydroxy-2,6-dimethylphenyl)-1H-pyrrolo[2,3-b]pyridine-4-carbonitrile]
- IC50: < 10 nM

Structure (SMILES): Cc1ccc(O)c(C)c1-c1cnc2[nH]c(-c3cnc(OC(F)F)nc3)cc2c1C#N [Example 85, 2-(2-(difluoromethoxy)pyrimidin-5-yl)-5-(3-hydroxy-2,6-dimethylphenyl)-1H-pyrrolo[2,3-b]pyridine-4-carbonitrile]
- IC50: < 10 nM

Structure (SMILES): Cc1ccc(O)c(C)c1-c1cnc2[nH]c(-c3cnc(C(C)(C)O)nc3)cc2c1C#N [Example 86, 5-(3-hydroxy-2,6-dimethylphenyl)-2-(2-(2-hydroxypropan-2-yl)pyrimidin-5-yl)-1H-pyrrolo[2,3-b]pyridine-4-carbonitrile]
- IC50: < 10 nM

Structure (SMILES): C#Cc1cc(-c2cc3c(C#N)c(-c4c(C)ccc(O)c4C)cnc3[nH]2)cnc1N [Example 87, (R)-2-(6-amino-5-ethynylpyridin-3-yl)-5-(3-hydroxy-2,6-dimethylphenyl)-1H-pyrrolo[2,3-b]pyridine-4-carbonitrile]
- IC50: < 10 nM
